Reference: ChEMBL document CHEMBL2074011, “Comparison of furosemide and vinblastine secretion from cell lines overexpressing multidrug resistance protein (P-glycoprotein) and multidrug resistance-associated proteins (MRP1 and MRP2)” (Pharmacology, 2002)

Assays:
[1] = target: Multidrug resistance-associated protein 1 (Homo sapiens, UniProt P33527); assay: TP_TRANSPORTER: transepithelial transport (basal to apical) in MRP1-expressing LLC-PK1cell; format: functional, cell-based; conditions: pig, llc-pk1
[2] = target: ATP-binding cassette sub-family C member 2 (Homo sapiens, UniProt Q92887); assay: TP_TRANSPORTER: inhibition of Vinblastine transepithelial transport (basal to apical)(Vinblastine: 0.035 uM, Sulfinpyrazone: 1000 uM) in MRP2-expressing MDCKII cells; format: functional, cell-based; conditions: dog, mdck-ii
Chain of ATP-binding cassette sub-family C member 2 (Q92887 whole entry): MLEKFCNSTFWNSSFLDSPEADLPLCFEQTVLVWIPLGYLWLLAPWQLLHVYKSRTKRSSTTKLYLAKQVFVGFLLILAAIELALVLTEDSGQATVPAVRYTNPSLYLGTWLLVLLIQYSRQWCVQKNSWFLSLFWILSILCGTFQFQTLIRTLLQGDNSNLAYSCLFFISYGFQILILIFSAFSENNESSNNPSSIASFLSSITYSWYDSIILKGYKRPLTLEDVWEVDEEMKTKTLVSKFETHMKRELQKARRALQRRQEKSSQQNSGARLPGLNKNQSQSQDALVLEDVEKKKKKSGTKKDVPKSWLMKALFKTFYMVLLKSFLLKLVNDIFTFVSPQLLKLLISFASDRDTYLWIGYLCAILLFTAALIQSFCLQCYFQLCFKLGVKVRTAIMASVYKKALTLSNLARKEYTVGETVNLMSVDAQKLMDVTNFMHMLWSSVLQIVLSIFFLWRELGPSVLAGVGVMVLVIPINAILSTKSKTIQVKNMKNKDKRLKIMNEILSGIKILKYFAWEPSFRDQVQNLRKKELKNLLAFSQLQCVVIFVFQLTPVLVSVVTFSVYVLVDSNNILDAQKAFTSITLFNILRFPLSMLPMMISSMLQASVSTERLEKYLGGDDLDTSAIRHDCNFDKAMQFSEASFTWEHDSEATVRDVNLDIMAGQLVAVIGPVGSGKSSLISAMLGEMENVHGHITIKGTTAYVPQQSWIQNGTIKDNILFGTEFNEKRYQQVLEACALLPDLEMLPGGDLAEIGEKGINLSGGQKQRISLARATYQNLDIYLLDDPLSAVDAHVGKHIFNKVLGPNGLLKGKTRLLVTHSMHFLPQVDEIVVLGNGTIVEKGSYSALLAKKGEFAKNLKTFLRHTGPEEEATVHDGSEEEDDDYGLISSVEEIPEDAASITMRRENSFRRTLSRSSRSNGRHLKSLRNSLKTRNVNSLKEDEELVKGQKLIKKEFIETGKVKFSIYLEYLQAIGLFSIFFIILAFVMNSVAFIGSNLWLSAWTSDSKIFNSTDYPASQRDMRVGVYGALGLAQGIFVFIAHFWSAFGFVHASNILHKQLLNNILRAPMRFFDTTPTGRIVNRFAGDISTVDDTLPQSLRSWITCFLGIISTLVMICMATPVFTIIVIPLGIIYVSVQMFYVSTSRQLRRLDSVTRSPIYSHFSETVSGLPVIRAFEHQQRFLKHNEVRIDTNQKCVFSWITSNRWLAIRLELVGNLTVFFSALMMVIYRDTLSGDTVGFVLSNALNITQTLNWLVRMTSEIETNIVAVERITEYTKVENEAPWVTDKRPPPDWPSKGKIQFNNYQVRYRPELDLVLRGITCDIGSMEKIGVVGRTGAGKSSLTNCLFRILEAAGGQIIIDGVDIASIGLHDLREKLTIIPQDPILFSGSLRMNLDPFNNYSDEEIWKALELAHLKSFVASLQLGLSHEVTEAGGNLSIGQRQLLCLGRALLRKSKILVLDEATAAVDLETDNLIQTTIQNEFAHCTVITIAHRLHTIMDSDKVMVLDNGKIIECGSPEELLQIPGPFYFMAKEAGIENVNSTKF

Chain of Multidrug resistance-associated protein 1 (P33527 whole entry): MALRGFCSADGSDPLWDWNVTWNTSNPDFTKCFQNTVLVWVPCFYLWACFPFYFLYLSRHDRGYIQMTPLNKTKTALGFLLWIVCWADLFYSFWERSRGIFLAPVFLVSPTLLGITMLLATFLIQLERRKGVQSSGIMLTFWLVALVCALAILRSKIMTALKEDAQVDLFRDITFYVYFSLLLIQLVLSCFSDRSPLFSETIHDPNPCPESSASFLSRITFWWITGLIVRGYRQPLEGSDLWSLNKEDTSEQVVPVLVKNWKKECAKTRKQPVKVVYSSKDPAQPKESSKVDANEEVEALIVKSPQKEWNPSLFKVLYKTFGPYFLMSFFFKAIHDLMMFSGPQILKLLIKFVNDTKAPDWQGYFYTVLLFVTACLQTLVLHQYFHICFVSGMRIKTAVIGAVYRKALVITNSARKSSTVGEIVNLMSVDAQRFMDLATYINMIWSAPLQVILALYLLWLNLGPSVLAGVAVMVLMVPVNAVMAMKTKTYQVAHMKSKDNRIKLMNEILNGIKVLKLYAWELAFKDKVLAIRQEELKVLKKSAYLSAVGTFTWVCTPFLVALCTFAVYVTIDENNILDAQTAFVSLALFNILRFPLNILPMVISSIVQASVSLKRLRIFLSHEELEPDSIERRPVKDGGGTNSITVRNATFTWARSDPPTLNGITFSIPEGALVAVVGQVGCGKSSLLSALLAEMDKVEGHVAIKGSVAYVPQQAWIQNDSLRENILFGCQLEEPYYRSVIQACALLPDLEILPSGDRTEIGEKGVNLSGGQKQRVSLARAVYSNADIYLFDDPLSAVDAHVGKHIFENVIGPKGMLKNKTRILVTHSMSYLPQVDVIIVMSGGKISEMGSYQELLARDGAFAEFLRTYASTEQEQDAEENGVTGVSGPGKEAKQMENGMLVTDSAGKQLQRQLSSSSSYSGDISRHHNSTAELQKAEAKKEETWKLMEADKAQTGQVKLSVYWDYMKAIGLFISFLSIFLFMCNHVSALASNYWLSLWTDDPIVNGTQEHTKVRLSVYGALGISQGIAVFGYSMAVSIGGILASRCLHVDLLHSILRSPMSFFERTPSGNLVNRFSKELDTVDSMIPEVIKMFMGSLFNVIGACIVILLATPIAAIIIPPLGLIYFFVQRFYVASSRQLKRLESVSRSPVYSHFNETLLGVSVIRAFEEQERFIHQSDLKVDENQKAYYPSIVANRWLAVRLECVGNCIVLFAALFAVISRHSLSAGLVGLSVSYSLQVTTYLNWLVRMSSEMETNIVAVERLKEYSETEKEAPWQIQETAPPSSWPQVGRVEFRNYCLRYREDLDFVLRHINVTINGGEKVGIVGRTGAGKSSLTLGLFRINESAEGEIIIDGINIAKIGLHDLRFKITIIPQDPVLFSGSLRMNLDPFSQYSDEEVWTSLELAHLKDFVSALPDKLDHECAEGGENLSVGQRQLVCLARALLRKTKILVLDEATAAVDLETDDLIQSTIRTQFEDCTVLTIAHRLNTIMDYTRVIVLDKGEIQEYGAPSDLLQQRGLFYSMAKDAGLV

| Structure (SMILES) | Activity [1] | Activity [2] |
| --- | --- | --- |
| CC[C@]1(O)C[C@@H]2CN(CCc3c([nH]c4ccccc34)[C@@](C(=O)OC)(c3cc4c(cc3OC)N(C)[C@H]3[C@@](O)(C(=O)OC)[C@H](OC(C)=O)[C@]5(CC)C=CCN6CC[C@]43[C@@H]65)C2)C1 [VINBLASTINE] | substrate [+] |  |
| O=C1C(CC[S+]([O-])c2ccccc2)C(=O)N(c2ccccc2)N1c1ccccc1 (configuration not stated) [SULFINPYRAZONE] |  | inhibitor [+] |
